Where a SMILES comes first, the peptide text is derived from it.

The subject of data set [1] is tomato plants grown in hydroponic culture. Description: PMP production by tomato plants grown in hydroponic culture after salicylic acid treatment. The class given is in vivo, Solanum lycopersicum. The method, then: Seeds of tomato (Solanum lycopersicum) cultivar Moneymaker were sterilized as follows: 70% ethanol for 3 min, 50% household bleach with 0.1% Triton X-100 (Sigma) for 20 min, washed three times with sterile deionized water. Sterilized seeds were germinated on moistened filter paper (Whatman®) in sterile Petri dishes sealed with medical tape (3M) and placed in a plant growth incubator (16 hr light, 23 C/21 C day/night) for seven days. Clear, square, pre-sterilized plastic containers (PhytoTech Labs) were assembled into hydroponic containers similar to what was previously described (Alatorre-Cobos et al., BMC Plant Biol., 14: Article No.: 69, 2014; FIG. 8A). Two containers were cut with sterile scalpels to assemble a support for a sterile polytetrafluoroethylene (PTFE) plastic mesh (McMaster-Carr). Plastic mesh was fixed to plastic supports with sterile staples. Small openings were cut into the plastic mesh and germinated seedlings threaded through the openings using sterile forceps. Each mesh supported five seedlings. 200 mL 1×MS growth medium (Murashige & Skoog basal salt mixture (Sigma) 4.3 g/L, sucrose 10 g/L, MES (Sigma) 0.5 g/L, pH 5.8 adjusted with KOH) was added to a whole plastic container serving as the base. Plastic support with mesh and threaded seedlings was placed into the base container. A second whole plastic container with a cut 2 cm^2 opening and sealed with medical tape was used as the lid. The two halves were sealed with medical tape and the containers transferred to a plant incubator (16 hr light, 23° C./21° C. day/night) for three weeks. […]
Culture medium (180 mL per container) was collected and centrifuged at 4,000×g for 30 min to pellet debris. […] Pellets were resuspended in 200 μL 1×PBS, pH 7.4 and analyzed using nano flow-cytometry (NanoFCM). PMP concentration (treatment: 4.06×10^11±1.41×10^11 PMP/mL (SEM); control: 5.44×10^10±2.49×10^10 PMP/mL (SEM)) and PMP size (treatment: 97±25 nm (SD); control: 82±27 nm (SD)) were determined by NanoFCM using concentration and size standards provided by the manufacturer (FIG. 8B).

Data set [2] has as its system BMS cell growth. Description: Cytotoxicity assay for concentrations not affecting apparent BMS cell growth. The class given is cell-based, Zea mays. The procedure: (§1) To determine the effect of the flagellin peptide flg22 ([…] (SEQ ID NO: 14) (AnaSpec AS-62633) on PMP production by Zea mays BMS cells, 200 mL of BMS cell culture were prepared as described above. A cytotoxicity assay was carried out to determine the range of concentrations of flg22 that would not affect apparent BMS cell growth, and the flg22 concentration of 1 μM was determined to be compatible with cell growth. 30 mL of BMS cell suspension was distributed in individual 125 mL conical culture vented-flasks. In parallel, 89.55 mL of fresh media was mixed with 450 μL of 400 μM flg22 peptide suspension prepared in ultrapure sterile water to a final concentration of 2 μM. For the control conditions, 450 μL of ultrapure sterile water was added instead of flg22. Then, 30 mL of the media/flg22 or media/water mix was added to each flask containing 30 mL cell suspension (1:1 v/v) to a flg22 final concentration of 1 μM. Biological triplicates were performed for both flg22 treatment and control conditions. Control cells and cells treated with flg22 were grown at 24° C. with agitation (110 rpm) for 96 hours.
To determine the effect of salicylic acid (SA) on PMP production by Zea mays BMS cells, 200 mL of BMS cell culture were prepared as described above. […] 30 mL of BMS cell suspension was distributed into individual 125 mL conical culture vented-flasks. […]

Data set [3] deals with Zea mays BMS cells. Briefly: PMP production by Zea mays BMS cell culture after elicitation (NanoFCM). It counts as cell-based. The settings on record: 100 μM salicylic acid, 96 hours. The procedure:
Zea mays, Black Mexican Sweet (BMS) cells were purchased from the ABRC. BMS cells were grown in Murashige and Skoog basal medium pH 5.8, containing 4.3 g/L Murashige and Skoog Basal Salt Mixture (Sigma M5524), 2% sucrose (S0389, Millipore Sigma), 2 mg/L 2,4-dichlorophenoxyacetic acid (D7299, Millipore Sigma), 250 ug/L thiamine HCL (V-014, Millipore Sigma) and a 1× MS vitamin mix solution in ddH2O. The 1× vitamin mix solution contained niacin (N0761-100G, Millipore Sigma), pyroxidine hydrochloride (P6280-25G, Millipore Sigma), D-pantothenic acid hemicalcium salt (P5155-100G, Millipore Sigma), L-Asparagine (A4159-25G, Millipore Sigma), and myo-inositol (17508-100G, Millipore Sigma) at respective final concentrations of 1.3 mg/L, 250 μg/L, 250 μg/L, 130 mg/L, and 200 mg/L. Cells were grown in 1 L vented conical sterile flasks in dark conditions at 24° C. with agitation (110 rpm). For experiments, BMS cells were grown until cells were at a packed cell volume (PCV) of 20%. The PCV estimates cell density and is defined as the volume of cells divided by the total volume of the cell culture aliquot. The Packed Cell Volume is expressed as a percentage. The PCV was determined as follows: 5 mL of BMS cell suspension was centrifuged for 5 min at 3900 rpm, and the volume of the cell pellet was determined.
as §1, with “Then, 30 mL of the media/flg22 or media/water mix was added to each flask containing 30 mL cell suspension (1:1 v/v) to a flg22 final concentration of 1 μM. Biological triplicates were performed for both flg22 treatment and control conditions. Control cells and cells treated with flg22 were grown at 24° C. with agitation (110 rpm) for 96 hours.” left out

Turning to `O=C(O)c1ccccc1O` [salicylic acid], in data set [1] (1 mM salicylic acid for three days, ± SD, control 82±27 nm), the PMP size is on record as 97±25 nm. Further, the “effect on secretion of PMPs from the plant roots” value in data set [1] (hydroponically grown tomato, 1 mM salicylic acid) is listed as “enhance secretion of PMPs from the plant roots”. Besides, the PMP concentration in data set [1] (three-week-old tomato plants, 1 mM salicylic acid for three days, ± SEM, n=2, DMSO control 5.44×10^10±2.49×10^10) was 4.06×10^11±1.41×10^11 PMP/mL; in data set [3] (BMS cells, average of triplicates, DMSO control 1.47×10^11 PMP/mL), 1.84×10^11 PMP/mL. The “concentration compatible with cell growth” value in data set [2] (Zea mays) came out at 100 µM. Besides, the “effect on production of PMPs by BMS cells in culture” value in data set [3] is “stimulates the production of PMPs”. Also, the “mean PMP size” value in data set [3] (BMS cells, control 87±15 nm) was 86.5±15 nm.
For the compound `CC[C@H](C)[C@H](NC(=O)[C@H](CCC(N)=O)NC(=O)[C@H](CC(C)C)NC(=O)CNC(=O)[C@H](C)NC(=O)[C@H](C)NC(=O)[C@H](CC(=O)O)NC(=O)[C@H](CC(=O)O)NC(=O)[C@H](CCCCN)NC(=O)[C@H](C)NC(=O)[C@H](CO)NC(=O)[C@H](CC(N)=O)NC(=O)[C@@H](NC(=O)[C@H](CCCNC(=N)N)NC(=O)[C@H](CO)NC(=O)CNC(=O)[C@@H](NC(=O)[C@H](CO)NC(=O)[C@H](CC(C)C)NC(=O)[C@H](CCCNC(=N)N)NC(=O)[C@@H](N)CCC(N)=O)[C@@H](C)O)[C@@H](C)CC)C(=O)N[C@@H](C)C(=O)O` [flg22] (H-QRLSTGSRINSAKDDAAGLQIA-OH), the “concentration compatible with cell growth” value in data set [2] (Zea mays BMS cells) amounted to 1 µM.
